In patent publication US11414395B2, “Heterocyclic compounds as modulators of mGluR7” (PRAGMA Therapeutics, priority 2017, dated 2022):

These compounds were tested against human mGluR7 (Homo sapiens (Human), UniProt Q14831) (assay: Inositol monophosphate production assay (IP1 assay), inhibition of L-AP4 response). Settings: mean IC50 from at least two independent experiments; HEK293 cells transiently transfected with mGluR7, Gqtop and EAAC1; IP1 production vs EC80 L-AP4.
Format: cell-based
In short: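 HEK293 cells transiently co-expressing mGluR7, chimeric Gq/Gi (Gqtop) and EAAC1, switched to Glutamax medium 3 h before stimulation. IP1 measured by competitive HTRF; inhibition of an EC80-equivalent L-AP4 response, triplicate points, four-parameter fit to log IC50, mean of ≥2 experiments.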

human mGluR7, sequence (Q14831 35-915): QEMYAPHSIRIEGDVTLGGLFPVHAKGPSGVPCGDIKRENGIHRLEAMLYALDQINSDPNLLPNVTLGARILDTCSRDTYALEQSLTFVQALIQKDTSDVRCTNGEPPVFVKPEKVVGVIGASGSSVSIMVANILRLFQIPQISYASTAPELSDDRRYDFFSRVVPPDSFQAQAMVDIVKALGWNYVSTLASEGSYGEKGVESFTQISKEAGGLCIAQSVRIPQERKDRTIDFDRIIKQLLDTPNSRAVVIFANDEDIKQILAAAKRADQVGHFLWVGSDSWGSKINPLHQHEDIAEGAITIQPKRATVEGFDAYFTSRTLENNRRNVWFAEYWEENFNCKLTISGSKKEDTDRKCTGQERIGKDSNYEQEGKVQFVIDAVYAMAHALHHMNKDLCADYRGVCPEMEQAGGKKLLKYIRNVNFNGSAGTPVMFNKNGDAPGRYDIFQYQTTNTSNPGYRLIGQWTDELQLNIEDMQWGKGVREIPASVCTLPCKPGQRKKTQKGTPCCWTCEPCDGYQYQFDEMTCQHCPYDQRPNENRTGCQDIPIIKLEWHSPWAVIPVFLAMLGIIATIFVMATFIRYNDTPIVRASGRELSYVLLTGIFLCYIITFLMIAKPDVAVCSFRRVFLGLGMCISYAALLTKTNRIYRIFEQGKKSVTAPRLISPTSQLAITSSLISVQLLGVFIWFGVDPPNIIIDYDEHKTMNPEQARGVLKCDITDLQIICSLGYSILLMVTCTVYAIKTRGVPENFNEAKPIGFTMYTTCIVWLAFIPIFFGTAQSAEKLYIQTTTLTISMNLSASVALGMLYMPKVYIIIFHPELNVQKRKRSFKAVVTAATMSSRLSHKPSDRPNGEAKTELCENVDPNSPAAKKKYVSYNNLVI

Row | Compound | IC50
1 | COc1cccc(C2CCc3c(cnn(-c4ccccn4)c3=O)C2)c1 (centres unmarked) [Example 2, 6-(3-methoxyphenyl)-2-(pyridin-2-yl)-5,6,7,8-tetrahydrophthalazin-1(2H)-one] | 500 to 1000 nM
2 | COc1c(C)cccc1C1CCc2c(cnn(-c3ccccn3)c2=O)C1 (centres unmarked) [Example 68, 6-(2-methoxy-3-methylphenyl)-2-(pyridin-2-yl)-5,6,7,8-tetrahydrophthalazin-1(2H)-one] | 500 to 1000 nM
3 | Cc1c(OC(C)C)cccc1C1CCc2c(cnn(-c3ncccn3)c2=O)C1 (centres unmarked) [Example 103, 6-(3-isopropoxy-2-methylphenyl)-2-(pyrimidin-2-yl)-5,6,7,8-tetrahydrophthalazin-1(2H)-one] | 1000 to 30000 nM
4 | COc1ccc(C(F)(F)F)c(C2CCc3c(cnn(-c4ncccn4)c3=O)C2)c1 (centres unmarked) [Example 73, 6-(5-methoxy-2-(trifluoromethyl)phenyl)-2-(pyrimidin-2-yl)-5,6,7,8-tetrahydrophthalazin-1(2H)-one] | 1000 to 30000 nM
5 | Cc1cc(Cl)ccc1C1CCc2c(cnn(-c3ncccn3)c2=O)C1 (centres unmarked) [Example 98, 6-(4-chloro-2-methylphenyl)-2-(pyrimidin-2-yl)-5,6,7,8-tetrahydrophthalazin-1(2H)-one] | < 500 nM
6 | CC(O)c1cccc(C2CCc3c(cnn(-c4ccccn4)c3=O)C2)c1 (centres unmarked) [Example 65, 6-(3-(1-hydroxyethyl)phenyl)-2-(pyridin-2-yl)-5,6,7,8-tetrahydrophthalazin-1(2H)-one] | 500 to 1000 nM
7 | COc1cccc(C2CCc3c(cnn(-c4ncc(C5CC5)cn4)c3=O)C2)c1C (centres unmarked) [Example 125, 2-(5-cyclopropylpyrimidin-2-yl)-6-(3-methoxy-2-methylphenyl)-5,6,7,8-tetrahydrophthalazin-1(2H)-one] | < 500 nM
8 | COc1cc(C2CCc3c(cnn(-c4ncccn4)c3=O)C2)c(C)cc1C (centres unmarked) [Example 97, 6-(5-methoxy-2,4-dimethylphenyl)-2-(pyrimidin-2-yl)-5,6,7,8-tetrahydrophthalazin-1(2H)-one] | < 500 nM
9 | COc1ccc(F)c(C2CCc3c(cnn(-c4ncccn4)c3=O)C2)c1F (centres unmarked) [Example 90, 6-(2,6-difluoro-3-methoxyphenyl)-2-(pyrimidin-2-yl)-5,6,7,8-tetrahydrophthalazin-1(2H)-one] | < 500 nM
10 | Cc1cnc(-n2ncc3c(c2=O)CCC(c2ccc(C)cc2C)C3)nc1 (centres unmarked) [Example 52, 6-(2,4-dimethylphenyl)-2-(5-methylpyrimidin-2-yl)-5,6,7,8-tetrahydrophthalazin-1(2H)-one] | < 500 nM
11 | O=c1c2c(cnn1-c1ccccn1)CC(c1cccc(OC3CC3)c1)CC2 (centres unmarked) [Example 66, 6-(3-cyclopropoxyphenyl)-2-(pyridin-2-yl)-5,6,7,8-tetrahydrophthalazin-1(2H)-one] | < 500 nM
12 | O=c1c2c(cnn1-c1ccccn1)CC(c1cccc(C3CC3)c1)CC2 (centres unmarked) [Example 63, 6-(3-cyclopropylphenyl)-2-(pyridin-2-yl)-5,6,7,8-tetrahydrophthalazin-1(2H)-one] | 500 to 1000 nM
13 | COc1nc(-n2ncc3c(c2=O)CCC(c2ccc(C)cc2C)C3)ncc1C (centres unmarked) [Example 56, 6-(2,4-dimethylphenyl)-2-(4-methoxy-5-methylpyrimidin-2-yl)-5,6,7,8-tetrahydrophthalazin-1(2H)-one] | < 500 nM
14 | Cc1ccc(C2CCc3c(cnn(-c4ccc(C#N)cn4)c3=O)C2)c(C)c1 (centres unmarked) [Example 22, 6-(6-(2,4-dimethylphenyl)-1-oxo-5,6,7,8-tetrahydrophthalazin-2(1H)-yl)nicotinonitrile] | < 500 nM
15 | CN1CCc2c(C3CCc4c(cnn(-c5ccccn5)c4=O)C3)cccc21 (centres unmarked) [Example 69, 6-(1-methylindolin-4-yl)-2-(pyridin-2-yl)-5,6,7,8-tetrahydrophthalazin-1(2H)-one] | < 500 nM
16 | Cc1ccc(C2CCc3c(cnn(-c4ncccn4)c3=O)C2)c(C)c1 (centres unmarked) [Example 29, 6-(2,4-dimethylphenyl)-2-(pyrimidin-2-yl)-5,6,7,8-tetrahydrophthalazin-1(2H)-one] | < 500 nM

Now from value to compound:

Row | IC50 | Compound
17 | < 500 nM | Cc1cnc(-n2ncc3c(c2=O)CCC(c2cccc(OC4CC4)c2C)C3)nc1 (single isomer, unassigned; (-)) [Example 132, (−)-6-(3-cyclopropoxy-2-methylphenyl)-2-(5-methylpyrimidin-2-yl)-5,6,7,8-tetrahydrophthalazin-1(2H)-one]
18 | < 500 nM | Cc1ccc(OC2CC2)cc1C1CCc2c(cnn(-c3ncccn3)c2=O)C1 (centres unmarked) [Example 84, 6-(5-cyclopropoxy-2-methylphenyl)-2-(pyrimidin-2-yl)-5,6,7,8-tetrahydrophthalazin-1(2H)-one]
19 | < 500 nM | Cc1ccc(C2CCc3c(cnn(-c4cccc(C)n4)c3=O)C2)c(C)c1 (centres unmarked) [Example 17, 6-(2,4-dimethylphenyl)-2-(6-methylpyridin-2-yl)-5,6,7,8-tetrahydrophthalazin-1(2H)-one]
20 | < 500 nM | CC(=O)Nc1cnc(-n2ncc3c(c2=O)CCC(c2ccc(C)cc2C)C3)nc1 (centres unmarked) [Example 117, N-(2-(6-(2,4-dimethylphenyl)-1-oxo-5,6,7,8-tetrahydrophthalazin-2(1H)-yl)pyrimidin-5-yl)acetamide]
21 | < 500 nM | CC(=O)Nc1cnc(-n2ncc3c(c2=O)CCC(c2cccc(OC4CC4)c2C)C3)nc1 (centres unmarked) [Example 127, N-(2-(6-(3-cyclopropoxy-2-methylphenyl)-1-oxo-5,6,7,8-tetrahydrophthalazin-2(1H)-yl)pyrimidin-5-yl)acetamide]
22 | < 500 nM | Cc1c(C2CCc3c(cnn(-c4ncccn4)c3=O)C2)cccc1N(C)C (centres unmarked) [Example 96, 6-(3-(dimethylamino)-2-methylphenyl)-2-(pyrimidin-2-yl)-5,6,7,8-tetrahydrophthalazin-1(2H)-one]
23 | < 500 nM | COc1cccc(C2CCc3c(cnn(-c4ncc(C)cn4)c3=O)C2)c1Cl (single isomer, unassigned; (-)) [Example 134, (−)-6-(2-chloro-3-methoxyphenyl)-2-(5-methylpyrimidin-2-yl)-5,6,7,8-tetrahydrophthalazin-1(2H)-one]
24 | < 500 nM | COc1cccc(C2CCc3c(cnn(-c4ccc(CO)cn4)c3=O)C2)c1C (centres unmarked) [Example 39, 2-(5-(hydroxymethyl)pyridin-2-yl)-6-(3-methoxy-2-methylphenyl)-5,6,7,8-tetrahydrophthalazin-1(2H)-one]
25 | < 500 nM | Cc1ccc(C2CCc3c(cnn(-c4cnccn4)c3=O)C2)c(C)c1 (centres unmarked) [Example 30, 6-(2,4-dimethylphenyl)-2-(pyrazin-2-yl)-5,6,7,8-tetrahydrophthalazin-1(2H)-one]
26 | < 500 nM | Cc1ccc(C2CCc3c(cnn(-c4ncc(N5CCC5)cn4)c3=O)C2)c(C)c1 (centres unmarked) [Example 116, 2-(5-(azetidin-1-yl)pyrimidin-2-yl)-6-(2,4-dimethylphenyl)-5,6,7,8-tetrahydrophthalazin-1(2H)-one]
27 | < 500 nM | Cc1ccc(C2CCc3c(cnn(-c4nccc(C5CC5)n4)c3=O)C2)c(C)c1 (centres unmarked) [Example 37, 2-(4-cyclopropylpyrimidin-2-yl)-6-(2,4-dimethylphenyl)-5,6,7,8-tetrahydrophthalazin-1(2H)-one]
28 | < 500 nM | Cc1ccc(C2CCc3c(cnn(-c4ncccc4F)c3=O)C2)c(C)c1 (centres unmarked) [Example 12, 6-(2,4-dimethylphenyl)-2-(3-fluoropyridin-2-yl)-5,6,7,8-tetrahydrophthalazin-1(2H)-one]
29 | < 500 nM | COc1cccc(C2CCc3c(cnn(-c4ncc(Cl)cn4)c3=O)C2)c1C (centres unmarked) [Example 43, 2-(5-chloropyrimidin-2-yl)-6-(3-methoxy-2-methylphenyl)-5,6,7,8-tetrahydrophthalazin-1(2H)-one]
